From ChEMBL document CHEMBL1201862, “PubChem BioAssay data set” (2004)
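Exposure lasted 48 hours, with cells grown in 96-well plates and compounds tested at five concentrations. Here, GI50 denotes the concentration required for 50% inhibition of growth.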 Calls of active or inactive are those of the source. Rule as the data show it: active = GI50 up to about 1.1 µM and inactive = higher.

Experiments:
Test in all cases: growth of human tumour cells (NCI), 48 h
[1] = test system: A498
[2] = test system: CAKI-1
[3] = test system: DU-145
[4] = test system: HCT-116
[5] = test system: HOP-92
[6] = test system: Hs-578T
[7] = test system: KM12
[8] = test system: LOX IMVI
[9] = test system: MCF7
[10] = test system: MDA-MB-435
[11] = test system: OVCAR-8
[12] = test system: SF-268
[13] = test system: SF-539
[14] = test system: SK-MEL-2
[15] = test system: SK-MEL-5
[16] = test system: SK-OV-3
[17] = test system: SNB-75
[18] = test system: SR
[19] = test system: TK-10
[20] = test system: UACC-257

| Compound | GI50 [1] | GI50 [2] | GI50 [3] | GI50 [4] | GI50 [5] | GI50 [6] | GI50 [7] | GI50 [8] | GI50 [9] | GI50 [10] | GI50 [11] | GI50 [12] | GI50 [13] | GI50 [14] | GI50 [15] | GI50 [16] | GI50 [17] | GI50 [18] | GI50 [19] | GI50 [20] |
| --- | --- | --- | --- | --- | --- | --- | --- | --- | --- | --- | --- | --- | --- | --- | --- | --- | --- | --- | --- | --- |
| Cc1cccc2cc3ccc4ccccc4c3cc12 | 44.2 µM (inactive) | 87.1 µM (inactive) | 66.5 µM (inactive) | 30 µM (inactive) | 98.9 µM (inactive) | > 100 µM (inactive) | 37.2 µM (inactive) | 39.4 µM (inactive) | 8.28 µM (inactive) | 47.6 µM (inactive) | > 100 µM (inactive) | > 100 µM (inactive) | 74 µM (inactive) | 26.5 µM (inactive) | 21.9 µM (inactive) | > 100 µM (inactive) | 69.2 µM (inactive) | 22.2 µM (inactive) | 36.6 µM (inactive) | 20 µM (inactive) |
| C=CCOc1ccccc1/N=N/C(C#N)=N\Nc1ccccc1OCC=C | > 100 µM (inactive) | > 100 µM (inactive) | > 100 µM (inactive) | > 100 µM (inactive) | 62.1 µM (inactive) | > 100 µM (inactive) | > 100 µM (inactive) | > 100 µM (inactive) | > 100 µM (inactive) | 41.9 µM (inactive) | > 100 µM (inactive) | > 100 µM (inactive) | > 100 µM (inactive) | > 100 µM (inactive) | > 100 µM (inactive) | > 100 µM (inactive) | > 100 µM (inactive) | > 100 µM (inactive) | > 100 µM (inactive) | > 100 µM (inactive) |
| Cc1cc(N(CCOS(C)(=O)=O)CCOS(C)(=O)=O)ccc1/C=N/c1ccc(-c2nc(Cc3ccccc3)sc2C)cc1 | 1.55 µM (inactive) | 1.23 µM (inactive) | 0.834 µM (active) | 15.2 µM (inactive) | 8.71 µM (inactive) | 10.6 µM (inactive) | 14.2 µM (inactive) | 5.37 µM (inactive) | 3.52 µM (inactive) | 11 µM (inactive) | 7.53 µM (inactive) | 3.99 µM (inactive) | 1.8 µM (inactive) | 15.3 µM (inactive) | 9.68 µM (inactive) | 0.494 µM (active) | 1.66 µM (inactive) | 1.32 µM (inactive) | 4.6 µM (inactive) | 12.1 µM (inactive) |
| CC1(C)OC(=C(C#N)C#N)C(C#N)=C1/C=C/c1ccncc1 | 7.69 µM (inactive) | 1.97 µM (inactive) | 2.53 µM (inactive) | 1.91 µM (inactive) | 2.42 µM (inactive) | 3.33 µM (inactive) | 3.8 µM (inactive) | 1.86 µM (inactive) | 2.04 µM (inactive) | 3.45 µM (inactive) | 1.75 µM (inactive) | 2.21 µM (inactive) | 1.8 µM (inactive) | 2.66 µM (inactive) | 4.37 µM (inactive) | 4.66 µM (inactive) | 3.05 µM (inactive) | 2.41 µM (inactive) | 2.08 µM (inactive) | 2.95 µM (inactive) |
| N#CC(C(=O)/C(=N/Nc1nc(S)nn1N)C(C#N)c1ccccc1)c1ccccc1 (stereo not given) | > 100 µM (inactive) | > 100 µM (inactive) | > 100 µM (inactive) | > 100 µM (inactive) | > 100 µM (inactive) | > 100 µM (inactive) | > 100 µM (inactive) | > 100 µM (inactive) | > 100 µM (inactive) | > 100 µM (inactive) | > 100 µM (inactive) | > 100 µM (inactive) | > 100 µM (inactive) | > 100 µM (inactive) | > 100 µM (inactive) | > 100 µM (inactive) | > 100 µM (inactive) | > 100 µM (inactive) | > 100 µM (inactive) | > 100 µM (inactive) |
| C[S+](C)CC(=O)c1ccc2c(c1)Sc1ccccc1O2 | 8.41 µM (inactive) | 4.39 µM (inactive) | 4.1 µM (inactive) | 1.32 µM (inactive) | 3.74 µM (inactive) | 3.45 µM (inactive) | 0.955 µM (active) | 3.18 µM (inactive) | 1.7 µM (inactive) | 0.923 µM (active) | 3.39 µM (inactive) | 5.43 µM (inactive) | 0.69 µM (active) | 3.4 µM (inactive) | 1.08 µM (active) | 6.04 µM (inactive) | 2.7 µM (inactive) | 1.43 µM (inactive) | 5.38 µM (inactive) | 4.72 µM (inactive) |
| C=CCn1cnc2c(O)nc(Nc3ccccc3)nc21 | > 100 µM (inactive) | > 100 µM (inactive) | > 100 µM (inactive) | > 100 µM (inactive) | > 100 µM (inactive) | > 100 µM (inactive) | > 100 µM (inactive) | > 100 µM (inactive) | > 100 µM (inactive) | > 100 µM (inactive) | > 100 µM (inactive) | > 100 µM (inactive) | > 100 µM (inactive) | > 100 µM (inactive) | > 100 µM (inactive) | > 100 µM (inactive) | > 100 µM (inactive) | > 100 µM (inactive) | > 100 µM (inactive) | > 100 µM (inactive) |
| CC(=O)c1ccc(Nc2c3c(nc4ccccc24)CCCC3)cc1 | > 31.8 µM (inactive) | 16.4 µM (inactive) | 20 µM (inactive) | 13.2 µM (inactive) | 21.1 µM (inactive) | 27.9 µM (inactive) | 7.29 µM (inactive) | 10 µM (inactive) | 18.7 µM (inactive) | 1.96 µM (inactive) | 17.7 µM (inactive) | 40.2 µM (inactive) | 26.6 µM (inactive) | 24 µM (inactive) | 14.9 µM (inactive) | 26.7 µM (inactive) | 4.12 µM (inactive) | 2.47 µM (inactive) | 42.5 µM (inactive) | 24.5 µM (inactive) |
| Cc1cccc(N2C(=O)C3ON(C(C(N)=O)c4ccccc4)C(c4c5ccccc5c(Cl)c5ccccc45)C3C2=O)c1C (stereo not given) | 11.9 µM (inactive) | 9.06 µM (inactive) | 10.4 µM (inactive) | 1.34 µM (inactive) | 7.89 µM (inactive) | 16.6 µM (inactive) | 1.85 µM (inactive) | 7.1 µM (inactive) | 7.64 µM (inactive) | 6.31 µM (inactive) | 9.84 µM (inactive) | 9.59 µM (inactive) | 7.67 µM (inactive) | 9.23 µM (inactive) | 7.03 µM (inactive) | 18.8 µM (inactive) | 8.05 µM (inactive) | 1.69 µM (inactive) | 11.8 µM (inactive) | 6.87 µM (inactive) |
| O=C1CC(n2cccc2)c2cc(Br)sc21 (stereo not given) | > 100 µM (inactive) | > 100 µM (inactive) | > 100 µM (inactive) | 66.7 µM (inactive) | > 100 µM (inactive) | > 100 µM (inactive) | > 100 µM (inactive) | 31.9 µM (inactive) | 69.5 µM (inactive) | 87.5 µM (inactive) | 36.9 µM (inactive) | > 100 µM (inactive) | > 100 µM (inactive) | > 100 µM (inactive) | > 100 µM (inactive) | > 100 µM (inactive) | 7.93 µM (inactive) | 15.8 µM (inactive) | > 100 µM (inactive) | > 100 µM (inactive) |
